Measured values: patent US20200000793A1, “TOPICAL FORMULATIONS OF TARGETED NITROXIDE AGENTS” (University of Pittsburgh - Of the Commonwealth System of …, priority 2011, published 2020)

How the values were obtained:
[1] = In vivo topical delivery in lipid-based formulation, amount retained in tape-stripped skin; details: 2 mg/ml in saline with surfactants and egg PC, liposome size 200 nm; tape-stripped skin of topically treated mice
Protocol: For these studies, 2 mg/ml JP4-039 was formulated in saline with a mixture of surfactants with egg PC by sonication to a liposome size of 200 nm. Harvested, tape-stripped (to remove superficial drug) skin from topically treated mice was processed as described above to determine the amount of JP4-039 retained in the skin. We found cutaneous retention to be in the range of 11.7+/−3.1 pmole/mg, a level compatible with therapeutic efficacy.

[2] = test system: human skin; experiment: Living human skin samples, 60 GY irradiation followed by topical JP4-039: oxidative skin damage
Protocol: Oxidative skin damage directly correlates with epidermal thickening, an increase in apoptotic (dying) cells (measured by TUNEL and Caspase release) and an increase in 8-oxoguanine positive cells. Further, oxidative damage is a result of free radical formation that correlates with increases in carbonylated proteins and reduced levels of GSH. […] Living human skin samples were divided and groups of skin samples were treated with either 60 GY irradiation (60 GY), 60 GY followed by topical JP4-039(60 GY+JP4-039), 60 GY followed by formulation without JP4-039(60 GY+Formulation), or were cultured without irradiation (0 GY CONTROL). Photographs in FIG. 10 a) are representative H&E sections (400×). […] In FIG. 10 c) sections were stained with antibody against 8-oxoguanine followed by DAB and counterstained with hemotoxalin. Positive cells have brown nuclei (400×). Epidermal thickness FIG. 10 (d) was determined by photographing 5 consecutive H&E sections (400×) and measuring the length of the epidermis at 5 sites within each photograph. The percentage of TUNEL positive cells FIG. 10 (e) and 8 oxoguanine positive cells FIG. 10 (f) was determined by counting all epidermal cells (positive and negative) in five consecutive 400× sections beginning with the site of maximal apoptosis. Carbonyl Protein FIG. 10 (g), Caspase 3/8 FIG. 10 (h) and GSH FIG. 10 (i) levels were determined in skin homogenates and were normalized by mg protein. Carbonyl protein samples were performed in triplicate from pooled homogenates. All graphical data were converted to % increase from control and are presented as mean+sem. Statistical significance was determined by ANOVA followed by a Bonferroni post test with significance set at p<0.05.

[3] = test system: irradiation induced skin damage; experiment: Mouse leg skin irradiated with 6 MeV electron beam, topical F14 emulsion after irradiation: skin damage; assay type: in vivo, C57BL/6NHsd mice
Protocol: Mouse flank was shaved and depilated 24 hrs. prior to irradiation with 35 GY using a 6 MeV electron beam.
JP4-039 was topically applied in a liposome formulation (F14-JP4-039 Emulsion: JP4-039 (2 mg/ml) was emulsified in sesame seed oil (100 mg/ml), and soy phosphatidyl choline (50 mg/ml) by sonication) 30 minutes after irradiation and daily for the next 3 days. Mice were photographed and skin damage scored by clinical criteria. Leg contracture was measured by comparing maximal extension between control and irradiated legs. Histological characterization of cellular infiltrates and collagen levels was performed.
JP4-039 was topically applied in a the above-described liposome formulation 30 minutes after irradiation. Skin samples taken at 4 hours. Analyzed for apoptosis via caspase 3 and TUNEL. Antioxidant functions evaluated by changes in GSH levels. All quantitative data presented as means±sem and significance determined by ANOVA followed by a Bonferoni post test set at p<0.05.
Materials/Methods: The right legs of C57BL/6NHsd mice were shaved and treated with Nair to remove the fur. Twenty four hours later the right legs were irradiated to doses of 30 or 35 Gy using 6 MeV electron beam, bolused to bring the surface dose to 100%. At 30 minutes after irradiation, 24, 48 and 72 hours, F14 emulsion only or F14-JP4-039 (100 μg in 50 μl) was applied to the skin. Photos were taken for visual evidence of skin damage and leg contracture was measured as a functional evaluation of tissue damage. Histological characterization of skin thickening, cellular infiltrates and collagen evaluation was also performed. To evaluate the mechanism of radiation damage mitigation, skin samples were assayed at 4 hours after irradiation for markers of apoptosis and oxidative stress. Results: Skin damage was scored on day 21 after irradiation. […] Assessment of Irradiation Damage: Skin damage was measured using visual evidence seen from photographs of the skin and measuring leg contracture. […]

[4] = test system: oxidative stress induced skin damage; experiment: Mice irradiated with 35 GY, JP4-039 at 0.5, 24 and 48 hours: barrier function (TEWL), fibrosis, thickening; assay type: in vivo
Protocol: Clinically relevant disruption of skin barrier function results in increased water loss from the skin surface. This can be measured non-invasively by the Transepidermal Water Loss (TEWL) assay. Increasing TEWL values directly correlate with damage to the skin's barrier function.
Groups of mice were irradiated with 35 GY to induce oxidative stress and then treated with JP4-039 or formulation alone 0.5, 24 and 48 hours after exposure. Skin was evaluated 21 days after initial treatment. Damage to skin barrier function was determined by TEWL. Results are reported as % recovery from 35 GY damage defined as (((radiated average−test sample value+0 GY average)/(treated average)*100) (FIG. 18a).
Fibrosis was evaluated histologically by evaluating the extent of collagen infiltration in the skin sections in (FIG. 18b) (100×). Dermal thickness is indicated by the arrows and collagen fibers were identified by Masson's Trichrome staining (blue). Representative H&E stained sections are provided in (FIG. 18c) with arrows showing epidermal thickness (200×). Dermal (FIG. 18d 100×) and epidermal (FIG. 18e) thickness (200×) was quantified at 5 sites within 4 representative histologic images for each mouse using NIH Image J Software. Statistical significance was determined by ANOVA followed by a Bonferroni post test set at p<0.05.

[5] = living human skin explants, topical
[6] = F14 emulsion applied at 30 min after irradiation

CC(C)C[C@@H](/C=C/CC(=O)NC1CC(C)(C)N([O])C(C)(C)C1)NC(=O)OC(C)(C)C [JP4-039, (S,E)-5-(tert-Butoxycarbonylamino)-7-methyloct-3-enoic Acid-TEMPO]
cutaneous retention [1]: 11.7 ± 3.1 pmol/mg | depletion of the antioxidant GSH [2, 5]: decreasing | epidermal thickening associated with oxidative skin damage [2, 5]: reduction | formation of protein carbonyls [2, 5]: reduction | radiation induced cellular apoptosis [2, 5]: reduction | oxidative damage of human skin ([2]; living human skin samples, 60 GY followed by topical JP4-039): protects human skin from oxidative damage | caspase 3 activity [3, 6]: decreased | thickening of the skin [3, 6]: decreased | antioxidant function in the skin ([3]; topical 30 minutes after 35 GY, skin taken at 4 hours, GSH levels): potent antioxidant function | fibrosis associated changes (epidermal and dermal thickening, collagen deposition) ([4]; day 21): prevents/mitigates | radiation induced TEWL increases ([4]; day 21, p=0.011): significantly reversed
